From patent publication US9126999B2, “Tetrahydropyrazolopyrimidine compounds” (EISAI R&D MANAGEMENT CO., LTD., priority 2012, dated 2015)
Where two headings read alike, the source gives them in different places.

Legend:
Human TLR8 = target: T1, Human TLR8 (Homo sapiens, UniProt Q9NR97); experiment: HEK-293 NF-kappaB luciferase reporter assay, CL097 stimulus; format: cell-based; details: human TLR8 in the HEK-293 assay format; read-out: HEK/TLR8 IC50
T1 construct: host or cells: HEK-293 stably expressing human TLR8, then transfected with pNiFty2(NF-kappaB)-luciferase
T1 sequence (Q9NR97 27-1041): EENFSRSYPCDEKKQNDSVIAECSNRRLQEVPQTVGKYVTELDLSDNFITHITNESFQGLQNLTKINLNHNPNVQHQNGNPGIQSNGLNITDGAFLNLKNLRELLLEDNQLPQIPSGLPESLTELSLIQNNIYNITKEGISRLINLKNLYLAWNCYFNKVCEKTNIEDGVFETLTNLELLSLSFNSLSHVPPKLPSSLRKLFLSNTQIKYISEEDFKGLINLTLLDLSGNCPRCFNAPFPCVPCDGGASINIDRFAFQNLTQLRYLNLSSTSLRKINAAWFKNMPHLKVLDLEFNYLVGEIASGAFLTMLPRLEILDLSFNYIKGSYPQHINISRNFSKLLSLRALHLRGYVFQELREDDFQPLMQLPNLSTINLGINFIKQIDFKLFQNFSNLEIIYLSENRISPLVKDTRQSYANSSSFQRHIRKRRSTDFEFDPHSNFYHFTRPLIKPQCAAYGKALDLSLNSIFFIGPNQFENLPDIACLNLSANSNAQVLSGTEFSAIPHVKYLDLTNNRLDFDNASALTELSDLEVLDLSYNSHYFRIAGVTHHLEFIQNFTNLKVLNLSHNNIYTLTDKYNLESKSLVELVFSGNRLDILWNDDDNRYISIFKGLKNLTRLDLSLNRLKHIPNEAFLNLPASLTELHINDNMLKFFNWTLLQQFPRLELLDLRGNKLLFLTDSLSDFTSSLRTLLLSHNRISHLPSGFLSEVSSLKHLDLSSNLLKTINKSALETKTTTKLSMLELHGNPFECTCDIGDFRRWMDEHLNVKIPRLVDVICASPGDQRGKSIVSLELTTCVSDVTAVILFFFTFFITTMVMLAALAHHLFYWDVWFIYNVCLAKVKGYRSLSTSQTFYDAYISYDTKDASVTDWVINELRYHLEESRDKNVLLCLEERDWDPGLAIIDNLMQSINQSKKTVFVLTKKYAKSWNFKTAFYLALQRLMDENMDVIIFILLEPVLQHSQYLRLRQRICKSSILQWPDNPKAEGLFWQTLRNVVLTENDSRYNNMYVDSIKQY
Description: In vitro pharmacology: HEK-293 cells (ATCC) were engineered to stably express a NF-kappaB transcription factor inducible E-selectin (ELAM-1) luciferase reporter derived from the plasmid pGL3 (Promega) containing base pairs −2241 bp to −254 bp from the promoter of the human E-selectin gene (Accession No. NM_000450). These cells were then subsequently engineered to stably and individually express human TLR4, TLR7 or TLR9 full-length ORF cDNAs. Human TLR4 cDNA (Accession No. NM_138554) was cloned into pcDNA 3.0 expression vector (Invitrogen). TLR4 transfected cells were also engineered to express human MD-2 co-receptor [MD-2 cDNA (Accession No. NM_015364) was cloned into the pEF-BOS vector] and were supplemented with 10 nM soluble CD14 (R&D Systems) in the media to optimize LPS responsiveness. Human TLR9 cDNA (Accession No. NM_017442) was cloned into the pBluescript II KS vector (Agilent). Human TLR7 cDNA (Accession No. NM_016562) was obtained from OriGene. HEK-293 cells stably expressing human TLR8 (Accession No. NM_138636) or mouse TLR7 (Accession No. NM_133211) were purchased from InvivoGen and were then stably transfected with pNiFty2(NF-kappaB)-luciferase reporter plasmid (InvivoGen). Each cell type was plated in Dulbecco's modified Eagle's medium (DMEM) containing 10% fetal bovine serum (FBS) at a density of 2.22×10^5 cells/ml into a 384-well plate and incubated for 2 days at 37° C., 5% CO2. Varying concentrations of antagonist compounds were then added. Cells were then incubated for another 30 minutes before adding the appropriate TLR agonist as follows (final concentrations indicated): lipopolysaccharide (LPS; Sigma) at 10 ng/ml for TLR4, CL097 (InvivoGen) at 3 ug/ml for human TLR7 and TLR8 and mouse TLR7, and CpG-2006-2A [sequence: […] (SEQ ID NO: 1) with phosphorothioate backbone, synthesized by Sigma-Aldrich] at 0.6 uM for TLR9.

Human TLR7/8 = system: T2, Human TLR7/8; experiment: Human PBMC cell-based assay, RNA-Ig (SL4-Ig) stimulus, cytokine ELISA
T2 construct: IC50; other: Hu PBMC; ligand RNA-Ig; analyte IL-6; analyte TNFα; ligand R848; IC50 against the RNA-Ig TLR7/8 stimulus; cytokine responses to RNA-Ig complexes in vitro; potency against the RNA-Ig TLR7/8 stimulus versus HCQ
Experimental: (§1) Briefly, 25 ml blood was diluted with 15 ml PBS (without Ca^2+, Mg^2+) in a 50 ml conical tube, and 12 ml Histopaque was underlaid using a spinal needle. Tubes were centrifuged for 45 minutes at 1200 rpm (350×g), and PBMC were collected from the buffy coat. Cells were then washed twice in PBS, and red blood cells were lysed by suspension in 5 ml ammonium chloride solution (1× Red Blood Cell Lysis Buffer, eBioscience) for 5 minutes at room temperature.
Antagonist compounds solubilized and serial diluted in 100% DMSO were added in triplicate to cells to yield a final concentration of 0.1% DMSO (v/v). Hydroxychloroquine (Acros Organics) solubilized and serial diluted in PBS was added in triplicate to cells. […] The resulting “RNA-Ig” stimulus was incubated at room temperature for 15-30 minutes before adding to cells. PBMC were incubated with the various TLR agonists for 20 hours at 37° C., 5% CO2. Cell culture supernatants were collected, and levels of various human cytokines were assessed as indicated by standard ELISA procedure according to the manufacturer's recommended protocol (BD Biosciences, Inc., San Diego, Calif.).

Human TLR4 = Human TLR4 (Homo sapiens, UniProt O00206); experiment: Human PBMC cell-based assay, LPS stimulus, IL-6 ELISA; design: endogenous in cells; host or cells: primary human PBMC from healthy donor blood; details: Hu PBMC; ligand LPS; analyte IL-6
Experimental: as §1, with “Human peripheral blood mononuclear cells (PBMC) were isolated from freshly-drawn heparinized (10 USP units/ml, Hospira, Lakeforest, Ill.) healthy donor whole blood by density gradient (Histopaque® 1077, Sigma, Inc., St. Louis, Mo.). Briefly,” for “Briefly,”, “temperature. […]” for “temperature.”
(§2) Antagonist compounds solubilized and serial diluted in 100% DMSO were added in triplicate to cells to yield a final concentration of 0.1% DMSO (v/v). […] Cell culture supernatants were collected, and levels of various human cytokines were assessed as indicated by standard ELISA procedure according to the manufacturer's recommended protocol (BD Biosciences, Inc., San Diego, Calif.).

Human TLR9 = target: T3, Human TLR9 (Homo sapiens, UniProt Q9NR96); experiment: Human PBMC cell-based assay, CpG-ODN stimulus, IL-6 ELISA; design: endogenous in cells; host or cells: primary human PBMC from healthy donor blood; details: Hu PBMC; ligand CpG-ODN; analyte IL-6
T3 sequence (Q9NR96 26-1032): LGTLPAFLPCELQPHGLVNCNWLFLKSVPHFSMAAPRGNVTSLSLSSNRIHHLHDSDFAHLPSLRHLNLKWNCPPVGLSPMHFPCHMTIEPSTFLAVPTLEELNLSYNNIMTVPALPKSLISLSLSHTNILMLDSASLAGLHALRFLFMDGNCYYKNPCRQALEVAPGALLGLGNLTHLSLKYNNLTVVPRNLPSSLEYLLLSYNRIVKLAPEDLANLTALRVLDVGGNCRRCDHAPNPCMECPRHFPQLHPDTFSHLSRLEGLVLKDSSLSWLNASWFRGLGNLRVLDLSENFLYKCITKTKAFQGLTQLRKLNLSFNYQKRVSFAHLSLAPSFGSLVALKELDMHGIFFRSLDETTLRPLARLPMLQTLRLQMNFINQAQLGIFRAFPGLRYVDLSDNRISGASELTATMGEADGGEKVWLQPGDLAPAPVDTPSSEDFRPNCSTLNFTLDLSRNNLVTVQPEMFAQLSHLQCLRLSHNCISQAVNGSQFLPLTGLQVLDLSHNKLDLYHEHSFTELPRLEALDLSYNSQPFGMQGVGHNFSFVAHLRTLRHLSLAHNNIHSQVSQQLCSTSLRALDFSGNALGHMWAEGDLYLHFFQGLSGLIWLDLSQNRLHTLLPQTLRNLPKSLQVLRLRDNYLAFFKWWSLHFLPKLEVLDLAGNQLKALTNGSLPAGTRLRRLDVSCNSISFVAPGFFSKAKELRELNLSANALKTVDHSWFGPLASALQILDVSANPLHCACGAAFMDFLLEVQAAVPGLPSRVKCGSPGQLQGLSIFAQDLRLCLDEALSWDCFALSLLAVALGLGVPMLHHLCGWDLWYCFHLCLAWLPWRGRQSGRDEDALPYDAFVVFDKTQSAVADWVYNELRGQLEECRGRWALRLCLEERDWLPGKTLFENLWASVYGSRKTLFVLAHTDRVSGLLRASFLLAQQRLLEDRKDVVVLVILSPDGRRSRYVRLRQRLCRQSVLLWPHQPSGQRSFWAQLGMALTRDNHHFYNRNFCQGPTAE
Experimental: as §1, with “Human peripheral blood mononuclear cells (PBMC) were isolated from freshly-drawn heparinized (10 USP units/ml, Hospira, Lakeforest, Ill.) healthy donor whole blood by density gradient (Histopaque® 1077, Sigma, Inc., St. Louis, Mo.). Briefly,” for “Briefly,”, “temperature. […]” for “temperature.”
as §2

[1] = Human PBMC IL-6 Inhibition (SL4-Ig Ligand), read-out: Human PBMC IC50

Chain of Human TLR4 (O00206 24-839): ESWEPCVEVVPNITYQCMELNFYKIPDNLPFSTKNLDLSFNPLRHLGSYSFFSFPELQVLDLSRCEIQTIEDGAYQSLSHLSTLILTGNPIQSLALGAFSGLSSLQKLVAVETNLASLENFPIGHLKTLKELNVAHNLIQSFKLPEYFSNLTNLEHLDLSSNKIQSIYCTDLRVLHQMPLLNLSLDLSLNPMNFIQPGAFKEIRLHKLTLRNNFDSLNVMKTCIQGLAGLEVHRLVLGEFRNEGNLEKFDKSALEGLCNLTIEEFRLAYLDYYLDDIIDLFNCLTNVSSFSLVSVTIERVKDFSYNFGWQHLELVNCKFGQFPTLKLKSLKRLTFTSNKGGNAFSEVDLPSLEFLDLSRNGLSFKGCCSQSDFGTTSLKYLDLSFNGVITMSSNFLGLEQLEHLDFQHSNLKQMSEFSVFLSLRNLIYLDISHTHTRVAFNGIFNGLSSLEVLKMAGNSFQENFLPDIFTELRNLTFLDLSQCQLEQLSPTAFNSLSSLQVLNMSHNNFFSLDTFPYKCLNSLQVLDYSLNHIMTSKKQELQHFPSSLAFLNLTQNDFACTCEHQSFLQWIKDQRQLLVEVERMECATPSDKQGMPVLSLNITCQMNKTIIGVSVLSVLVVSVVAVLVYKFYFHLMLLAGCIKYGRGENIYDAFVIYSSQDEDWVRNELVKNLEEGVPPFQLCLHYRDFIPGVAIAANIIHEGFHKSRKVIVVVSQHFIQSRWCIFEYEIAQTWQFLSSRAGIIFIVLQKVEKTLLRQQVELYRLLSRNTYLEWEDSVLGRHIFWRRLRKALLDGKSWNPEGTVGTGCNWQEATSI
Chain of Human TLR4 (Q9Y6Y9 19-160 partner): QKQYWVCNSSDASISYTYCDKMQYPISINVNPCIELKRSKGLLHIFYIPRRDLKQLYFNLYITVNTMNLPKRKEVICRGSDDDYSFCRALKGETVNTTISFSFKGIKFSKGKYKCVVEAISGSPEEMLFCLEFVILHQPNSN

Row | SMILES | IC50 (Human TLR8) | IC50 (Human TLR7/8; [1]) | IC50 (Human TLR7/8; Hu PBMC, ligand RNA-Ig, analyte IL-6, read-out: IC50) | IC50 (Human TLR7/8; read-out: IC50 against the RNA-Ig TLR7/8 stimulus) | IC50 (Human TLR4) | IC50 (Human TLR9)
1 | COc1cc(-c2cc3n(n2)C(C(F)(F)F)CC(c2ccc(OC)c(OC)c2)N3)ccn1 (racemic) [ER-886434] | 300 nM | 414 nM | – | – | – | –
2 | COc1ccc([C@H]2C[C@@H](C(F)(F)F)n3nc(-c4ccc(C(=O)N5CCNCC5)cc4)cc3N2)cc1OC [ER-892924] | 220 nM | 160 nM | – | – | – | –
3 | CCN(CCO)CCCC(C)Nc1ccnc2cc(Cl)ccc12 (stereo not drawn) [HCQ, Hydroxychloroquine, reference compound] | – | – | 1000 to 2000 nM | ~1500 nM | > 10000 nM | 150 to 300 nM

The next lines start with the values.

Row | IC50 (Human TLR8) | IC50 (Human TLR7/8; [1]) | IC50 (Human TLR7/8; Hu PBMC, ligand RNA-Ig, analyte IL-6, read-out: IC50) | IC50 (Human TLR7/8; read-out: IC50 against the RNA-Ig TLR7/8 stimulus) | IC50 (Human TLR4) | IC50 (Human TLR9) | SMILES
4 | 330 nM | 744 nM | – | – | – | – | Cc1nn(C)cc1C1CC(C(F)(F)F)n2nc(-c3ccc4c(cnn4C)c3C)cc2N1 (stereo not drawn) [ER-892900]
5 | 220 nM | 2110 nM | – | – | – | – | Cc1nn(C)cc1[C@H]1C[C@@H](C(F)(F)F)n2nc(-c3ccc4c(cnn4C)c3C)cc2N1 [ER-893987]
